IC90 data for 23 compounds are collected here from US20220396565A1 (Hoffmann-La Roche Inc., priority 2020, published 2022).

Counter-ions that a name gives are not always drawn.

The test system of the first assay is Acinetobacter baumannii ATCC17961. Nature of the assay: Antimicrobial susceptibility testing: 90% growth inhibitory concentration (IC90) determination, Iso-Sensitest broth. The following applies: Acinetobacter baumannii, ATCC17961, 90% growth inhibitory concentration, Acinetobacter baumannii ATCC17961, Iso-Sensitest broth; read-out: ATCC 17961 IC90. It counts as cell-based. The method, boiled down:
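Growth at OD600 was monitored every 20 min for 16 h at 35±2 °C, with bacteria inoculated at ~5×10^(5) CFU/ml into Iso-Sensitest medium. Compounds were tested as 10-point twofold dilutions (e.g. 10–0.02 μM final). The 90% inhibitory concentration comes from the log-phase growth.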
On to `Cn1c(-c2ccc(OCF)c(F)c2F)cnc1C(=O)Nc1ccc(C(=O)N2CCC(C(=O)N[C@@H]3CCNC3)CC2)c(Cl)c1` [Example 90, (R)-1-(2-chloro-4-(5-(2,3-difluoro-4-(fluoromethoxy)phenyl)-1-methyl-1H-imidazole-2-carboxamido)benzoyl)-N-(pyrrolidin-3-yl)piperidine-4-carboxamide 2,2,2-trifluoroacetate], for which the IC90 was 40 nM.

As for `Cn1c(-c2ccc(OC(F)F)c(F)c2F)cnc1C(=O)Nc1ccc(C(=O)N2CCC(C(=O)N[C@@H]3CCNC3)CC2)c(Cl)c1` [Example 91, (R)-1-(2-chloro-4-(5-(4-(difluoromethoxy)-2,3-difluorophenyl)-1-methyl-1H-imidazole-2-carboxamido)benzoyl)-N-(pyrrolidin-3-yl)piperidine-4-carboxamide formate], the concentration for an effect of 90% (IC90) worked out at 40 nM.

With `Cn1c(-c2ccc(OC(F)F)c(F)c2F)cnc1C(=O)Nc1ccc(C(=O)N2CCC(C(=O)NC3CCNCC3)CC2)c(Cl)c1` [Example 94, 1-(2-chloro-4-(5-(4-(difluoromethoxy)-2,3-difluorophenyl)-1-methyl-1H-imidazole-2-carboxamido)benzoyl)-N-(piperidin-4-yl)piperidine-4-carboxamide formate], the IC90 turned out to be 40 nM.

Turning to `Cn1c(-c2ccc(OC(F)F)c(F)c2F)cnc1C(=O)Nc1ccc(C(=O)N2CCC(C(=O)N[C@H]3CCNC3)CC2)c(Cl)c1` [Example 95, (S)-1-(2-chloro-4-(5-(4-(difluoromethoxy)-2,3-difluorophenyl)-1-methyl-1H-imidazole-2-carboxamido)benzoyl)-N-(pyrrolidin-3-yl)piperidine-4-carboxamide formate], the IC90 amounted to 50 nM.

Turning to `Cn1c(-c2ccc(OC(F)F)c(F)c2F)cnc1C(=O)Nc1ccc(C(=O)N2CCC(C(=O)N[C@@H]3CNC[C@H]3O)CC2)c(Cl)c1` [Example 96, 1-(2-chloro-4-(5-(4-(difluoromethoxy)-2,3-difluorophenyl)-1-methyl-1H-imidazole-2-carboxamido)benzoyl)-N-((3R,4R)-4-hydroxypyrrolidin-3-yl)piperidine-4-carboxamide formate], the IC90 is 40 nM.

As for `CCc1cc(NC(=O)c2ncc(-c3ccc(OC)c(F)c3F)n2C)ccc1C(=O)N1CCC(C(=O)N2CCN(CCCN(C)C)CC2)CC1` [Example 97, 5-(2,3-difluoro-4-methoxy-phenyl)-N-[4-[4-[4-[3-(dimethylamino)propyl]piperazine-1-carbonyl]piperidine-1-carbonyl]-3-ethyl-phenyl]-1-methyl-imidazole-2-carboxamide], the IC90 amounted to 260 nM.

In the case of `CCc1cc(NC(=O)c2ncc(-c3ccc(OC)c(F)c3F)n2C)ccc1C(=O)N1CCC(C(=O)NCCOCCN(C)C)CC1` [Example 99, 1-[4-[[5-(2,3-difluoro-4-methoxy-phenyl)-1-methyl-imidazole-2-carbonyl]amino]-2-ethyl-benzoyl]-N-[2-[2-(dimethylamino)ethoxy]ethyl] piperidine-4-carboxamid], the concentration for an effect of 90% (IC90) is 480 nM.

Regarding `CCc1cc(NC(=O)c2ncc(-c3ccc(OC)c(F)c3F)n2C)ccc1C(=O)N1CCC(C(=O)NCCN)CC1` [Example 100, N-(2-aminoethyl)-1-[4-[[5-(2,3-difluoro-4-methoxy-phenyl)-1-methyl-imidazole-2-carbonyl]amino]-2-ethyl-benzoyl]piperidine-4-carboxamide], the IC90 was 340 nM.

Turning to `COc1ccc(-c2cnc(C(=O)Nc3ccc(C(=O)N4CCC(NC(=O)CCN(C)C)CC4)c(Cl)c3)n2C)c(F)c1F` [Example 101, N-[3-chloro-4-[4-[3-(dimethylamino)propanoylamino]piperidine-1-carbonyl]phenyl]-5-(2,3-difluoro-4-methoxy-phenyl)-1-methyl-imidazole-2-carboxamide formate], the IC90 was 50 nM.

`COc1ccc(-c2cnc(C(=O)Nc3ccc(C(=O)N4CCC(NC(=O)[C@@H]5C[C@@H](O)CN5)CC4)c(Cl)c3)n2C)c(F)c1F` [Example 102, N-[3-chloro-4-[4-[[(2S,4R)-4-hydroxypyrrolidine-2-carbonyl]amino]piperidine-1-carbonyl]phenyl]-5-(2,3-difluoro-4-methoxy-phenyl)-1-methyl-imidazole-2-carboxamide]: the IC90 is 90 nM.

As to `COc1ccc(-c2cnc(C(=O)Nc3ccc(C(=O)N4CCC(NC(=O)CCN)CC4)c(Cl)c3)n2C)c(F)c1F` [Example 103, N-[4-[4-(3-aminopropanoylamino)piperidine-1-carbonyl]-3-chloro-phenyl]-5-(2,3-difluoro-4-methoxy-phenyl)-1-methyl-imidazole-2-carboxamide formate], the IC90 amounted to 60 nM.

As for `COc1ccc(-c2cnc(C(=O)Nc3ccc(C(=O)N4CCN(C(=O)[C@H]5CC[C@@H](N)C5)CC4)c(Cl)c3)n2C)c(F)c1F` [Example 108, N-[4-[4-[(1S,3R)-3-aminocyclopentane-carbonyl]piperazine-1-carbonyl]-3-chloro-phenyl]-5-(2,3-difluoro-4-methoxy-phenyl)-1-methyl-imidazole-2-carboxamide; formate], the IC90 worked out at 40 nM.

Consider `COc1ccc(-c2cnc(C(=O)Nc3ccc(C(=O)N4CCC(NC(=O)[C@@H]5CCNC5)C4)c(Cl)c3)n2C)c(F)c1F` (stereo partly drawn) [Example 109, N-[3-chloro-4-[3-[[(3R)-pyrrolidine-3-carbonyl]amino]pyrrolidine-1-carbonyl]phenyl]-5-(2,3-difluoro-4-methoxy-phenyl)-1-methyl-imidazole-2-carboxamide formate], for which the IC90 was found to be 150 nM.

`COc1ccc(-c2cnc(C(=O)Nc3ccc(C(=O)N4CCC(NC(=O)C5CCNCC5)C4)c(Cl)c3)n2C)c(F)c1F` (centres unmarked) [Example 110, N-[1-[2-chloro-4-[[5-(2,3-difluoro-4-methoxy-phenyl)-1-methyl-imidazole-2-carbonyl]amino]benzoyl]pyrrolidin-3-yl]piperidine-4-carboxamide formate]: the IC90 was 180 nM.

Take `COc1ccc(-c2cnc(C(=O)Nc3ccc(C(=O)N4CCC(NC(=O)CCOCCN)C4)c(Cl)c3)n2C)c(F)c1F` (centres unmarked) [Example 111, N-[4-[3-[3-(2-aminoethoxy)propanoylamino]pyrrolidine-1-carbonyl]-3-chloro-phenyl]-5-(2,3-difluoro-4-methoxy-phenyl)-1-methyl-imidazole-2-carboxamide formate]: the IC90 came to 300 nM.

In the case of `COc1ccc(-c2cnc(C(=O)Nc3ccc(C(=O)N4CC5(C4)CN(C(=O)[C@@H]4C[C@@H](O)CN4)C5)c(Cl)c3)n2C)c(F)c1F` [Example 112, N-[3-chloro-4-[2-[(2S,4R)-4-hydroxypyrrolidine-2-carbonyl]-2,6-diazaspiro[3.3]heptane-6-carbonyl]phenyl]-5-(2,3-difluoro-4-methoxy-phenyl)-1-methyl-imidazole-2-carboxamide], the 90% effect concentration (IC90) was determined as 230 nM.

With `COc1ccc(-c2cnc(C(=O)Nc3ccc(C(=O)N4CCN(C(=O)C5(O)CCNCC5)CC4)c(C)c3)n2C)c(Cl)c1F` [Example 118, 5-(2-chloro-3-fluoro-4-methoxy-phenyl)-N-[4-[4-(4-hydroxypiperidine-4-carbonyl)piperazine-1-carbonyl]-3-methyl-phenyl]-1-methyl-imidazole-2-carboxamide formate], the IC90 was 140 nM.

Regarding `COc1ccc(-c2cnc(C(=O)Nc3ccc(C(=O)N4CCN(C(=O)C5CC6(CNC6)C5)CC4)c(C)c3)n2C)c(Cl)c1F` [Example 119, N-[4-[4-(2-azaspiro[3.3]heptane-6-carbonyl)piperazine-1-carbonyl]-3-methyl-phenyl]-5-(2-chloro-3-fluoro-4-methoxy-phenyl)-1-methyl-imidazole-2-carboxamide; formic acid], the IC90 came out at 120 nM.

For the compound `COc1ccc(-c2cnc(C(=O)Nc3ccc(C(=O)N4CCN(C(=O)C5CCN(C(=O)CN(C)C)CC5)CC4)c(Cl)c3)n2C)c(F)c1F` [Example 120, N-[3-chloro-4-[4-[1-[2-(dimethylamino)acetyl]piperidine-4-carbonyl]piperazine-1-carbonyl]phenyl]-5-(2,3-difluoro-4-methoxy-phenyl)-1-methyl-imidazole-2-carboxamide], the IC90 came to 60 nM.

Take `COc1ccc(-c2cnc(C(=O)Nc3ccc(C(=O)N4CCN(C(=O)CCCN)CC4)c(Cl)c3)n2C)c(F)c1F` [Example 121, N-[4-[4-(4-aminobutanoyl)piperazine-1-carbonyl]-3-chloro-phenyl]-5-(2,3-difluoro-4-methoxy-phenyl)-1-methyl-imidazole-2-carboxamide; formic acid]: the IC90 stood at 40 nM.

Consider `COc1ccc(-c2cnc(C(=O)Nc3ccc(C(=O)N4CCN(C(=O)CCCC(N)=O)CC4)c(Cl)c3)n2C)c(F)c1F` [Example 122, N-[4-[4-(5-amino-5-oxo-pentanoyl)piperazine-1-carbonyl]-3-chloro-phenyl]-5-(2,3-difluoro-4-methoxy-phenyl)-1-methyl-imidazole-2-carboxamide], for which the concentration for an effect of 90% (IC90) turned out to be 90 nM.

Staying with this assay, now noted: Acinetobacter baumannii, ATCC17961, read-out: ATCC 17961 IC90.
In the case of `Cn1c(-c2ccc(OC(F)F)c(F)c2F)cnc1C(=O)Nc1ccc(C(=O)N2CCC(C(=O)NCCN)CC2)c(Cl)c1` [Example 92, N-(2-aminoethyl)-1-(2-chloro-4-(5-(4-(difluoromethoxy)-2,3-difluorophenyl)-1-methyl-1H-imidazole-2-carboxamido)benzoyl) piperidine-4-carboxamide formate], the IC90 was determined as 60 nM.

Take `Cn1c(-c2ccc(OC(F)F)c(F)c2F)cnc1C(=O)Nc1ccc(C(=O)N2CCC(C(=O)N[C@H]3CNC[C@@H]3O)CC2)c(Cl)c1` [Example 93, 1-(2-chloro-4-(5-(4-(difluoromethoxy)-2,3-difluorophenyl)-1-methyl-1H-imidazole-2-carboxamido)benzoyl)-N-((3S,4S)-4-hydroxypyrrolidin-3-yl)piperidine-4-carboxamide formate]: the IC90 stood at 40 nM.
